Where two headings read alike, the source gives them in different places.
Legend:
[1] = Colon and colonic content concentrations in rat TNBS colitis model (LC-MS/MS); type: in vivo, Sprague Dawley rats; conditions: Sprague Dawley, po
Method: […] In all studies, the peptide of SEQ ID NO: 1 was dosed starting 2 days prior to TNBS induction through day 6, with euthanasia scheduled on day 7.
At the end of each study, colonic content and colon tissue samples were collected from each animal and analyzed for drug concentrations by LC-MS/MS.

[2] = system: rat trinitrobenzenesulfonic acid (TNBS)-induced colitis model; experiment: Rat TNBS-induced colitis model, efficacy; type: in vivo, Sprague-Dawley rats
Source text: Intracolonic TNBS instillation in Sprague-Dawley rats induces colonic inflammation driven in part by IL-23/IL-23R signaling (Cheng X, Taranath R, Mattheakis L, Bhandari A, Liu D. The biomarker profile of PTG-200, an oral peptide antagonist of IL-23 receptor, tracks with efficacy in a preclinical model of IBD. J Crohns Colitis. AGA Abstracts, 2017). The TNBS rat model therefore provides a measure of the local GI effects of SEQ ID NO: 1 on IL-23/IL-23R signaling.
The peptide of SEQ ID NO: 1 was evaluated in the rat TNBS model with oral dosing only, three times a day (0.03, 0.1, 0.3, 1, 3, 10, mg/kg/day), in three independent rat TNBS experiments. In all studies, the peptide of SEQ ID NO: 1 was dosed starting 2 days prior to TNBS induction through day 6, with euthanasia scheduled on day 7.
Disease severity resulting from TNBS can be assessed by qualitative scoring of the formation of strictures, adhesions, ulceration, and increase in wall thickness as described previously. […] Based on this qualitative scoring, the peptide of SEQ ID NO: 1 at 0.1 mg/kg/day was considered to be the minimally efficacious dose for colonic score (FIG. 13).
Data from 3 different studies were combined (represented by shapes of the symbols at each dose level: study 1 (Δ), study 2 (♦), study 3 (∘); box at interquartile range, bars at minima/maxima). The colons were scored on the following parameters: adhesion (0-2), stricture (0-3), ulcer (0-5), and wall thickness (0-2) for a total sum component score range of 0-12. The colon score was reduced by treatment with the peptide of SEQ ID NO: 1 at doses of […] (ns=not significant, * p<0.05, *** p<0.001, **** p<0.0001).

[3] = in vivo
[4] = system: IL-23 induced phosphorylation of STAT3; experiment: Ex vivo whole blood phosphorylation of STAT3 assay, FIH 25 mg MAD cohort; type: in vivo; conditions: human, 25 mg oral once a day, 3 subjects, 100 ng/mL IL-23
Method: An ex vivo whole blood IL-23 induced STAT3 phosphorylation assay was also used to evaluate the systemic pharmacodynamic activity of the orally administered peptide of SEQ ID NO: 1 in the first-in-human study. This proximal IL-23R signaling assay was performed by analyzing IL-23 induced phosphorylation of STAT3 using a flow cytometer. Assay was implemented in the 25 mg MAD cohort, at multiple timepoints on Day 1 and Day 10, where healthy volunteers were given placebo or 25 mg of peptide of SEQ ID NO: 1 orally once a day for 10 consecutive days. On Days 1 and 10, when the assay was performed, subjects received their dose of placebo or peptide of SEQ ID NO: 1 following an overnight fast of approximately 10 hours and remained fasted for approximately 4 hours following dosing. […] Therefore, lower STAT3 phosphorylation as readout by the assay is associated with sufficient exposure to achieve systemic pharmacodynamic activity of orally dosed peptide of SEQ ID NO: 1. Since there is no dilution of blood required, and the readout is more proximal than IFNγ production, and the response is measured in the specific subset of immune cells that respond to IL-23, the pSTAT3 assay is a more sensitive pharmacodynamic readout than IFNγ. […]

Structure (SMILES): CC(=O)NCCCC[C@@H]1NC(=O)[C@H](Cc2c[nH]c3c(C)cccc23)NC(=O)[C@H]([C@@H](C)O)NC(=O)[C@H](CC(N)=O)NC(=O)[C@@H](NC(C)=O)C(C)(C)SSC(C)(C)[C@@H](C(=O)N[C@@H](Cc2ccc(OCCN)cc2)C(=O)N[C@@H](Cc2ccc3ccccc3c2)C(=O)NC2(C(=O)N[C@@H](CCC(=O)O)C(=O)N[C@@H](CC(N)=O)C(=O)N[C@@H](Cc3cccnc3)C(=O)N(C)CC(N)=O)CCOCC2)NC1=O [SEQ ID NO: 1, Ac-[Pen]*—N-T-[W(7-Me)]-[Lys(Ac)]-[Pen]*-Phe[4-(2-aminoethoxy)]-[2-Nal]-[THP]-E-N-[3-Pal]-Sarc-NH2]
- tissue level at time at 168 h ([1]; colon content, 0.033 mg/kg, Study 3, 0.033 mg/kg TID oral, total daily dose 0.1 mg/kg, read-out: Mean concentration in Colon content): 567 ng/g
- tissue level at time at 168 h ([1]; colon content, 0.1 mg/kg, Study 2, 0.1 mg/kg TID oral, total daily dose 0.3 mg/kg, read-out: Mean concentration in Colon content): 1990 ng/g
- tissue level at time at 168 h ([1]; colon content, 0.1 mg/kg, Study 3, 0.1 mg/kg TID oral, total daily dose 0.3 mg/kg, read-out: Mean concentration in Colon content): 3180 ng/g
- tissue level at time at 168 h ([1]; colon content, 0.33 mg/kg, Study 2, 0.33 mg/kg TID oral, total daily dose 1 mg/kg, read-out: Mean concentration in Colon content): 7440 ng/g
- tissue level at time at 168 h ([1]; colon content, 0.33 mg/kg, Study 3, 0.33 mg/kg TID oral, total daily dose 1 mg/kg, read-out: Mean concentration in Colon content): 6050 ng/g
- tissue level at time at 168 h ([1]; colon content, 0.5 mg/kg, Study 2, 0.5 mg/kg BID oral, total daily dose 1 mg/kg, read-out: Mean concentration in Colon content): 11200 ng/g
- tissue level at time at 168 h ([1]; colon content, 1 mg/kg, Study 2, 1 mg/kg QD oral, total daily dose 1 mg/kg, read-out: Mean concentration in Colon content): 11700 ng/g
- tissue level at time at 168 h ([1]; colon content, 1 mg/kg, Study 2, 1 mg/kg TID oral, total daily dose 3 mg/kg, read-out: Mean concentration in Colon content): 22200 ng/g
- tissue level at time at 168 h ([1]; colon content, 1 mg/kg, Study 3, 1 mg/kg TID oral, total daily dose 3 mg/kg, read-out: Mean concentration in Colon content): 20800 ng/g
- tissue level at time at 168 h ([1]; colon content, 3.3 mg/kg, Study 2, 3.3 mg/kg TID oral, total daily dose 10 mg/kg, read-out: Mean concentration in Colon content): 73500 ng/g
- tissue level at time at 168 h ([1]; colon, 0.1 mg/kg, Study 3, 0.1 mg/kg TID oral, total daily dose 0.3 mg/kg, read-out: Mean concentration in Colon): 44.4 ng/g
- tissue level at time at 168 h ([1]; colon, 0.33 mg/kg, Study 3, 0.33 mg/kg TID oral, total daily dose 1 mg/kg, read-out: Mean concentration in Colon): 158 ng/g
- tissue level at time at 168 h ([1]; colon, 1 mg/kg, Study 3, 1 mg/kg TID oral, total daily dose 3 mg/kg, read-out: Mean concentration in Colon): 509 ng/g
- TNBS-induced weight loss ([2]; 0.03, 0.1, 0.3, 1, 3, and 10 mg/kg/day, all 3 studies): prevented and reversed
- minimally efficacious dose, body weight ([2]; day 7 as the study endpoint): 0.3 mg/kg/day
- minimal efficacious dose, TNBS-induced colitis model (summary) ([2]; rat, in vivo): 0.3 mg/kg/day
- minimally efficacious dose, colonic score ([2]; rat, in vivo): 0.1 mg/kg/day
- mean accumulation for AUC ([3]; human): 13-50%
- Systemic exposure (Cmax and AUC) versus dose [3]: approximately dose-proportional
- inhibition of STAT3 phosphorylation in memory CD26high CD4+ T cells, memory CD26high CD8+ T cells and CD26high NKT cells [4]: near-complete inhibition

— patent publication US11939361B2, “Compositions of peptide inhibitors of Interleukin-23 receptor” (Janssen Pharmaceutica NV, priority 2020, dated 2024)
